Measurements reported in PubChem BioAssay AID1963963 (Molecular Pharmacology Branch, DTP, NCI, 2024).

Test system: 958667-338-R-J2-PDC tumor spheroids viability
Assay: Anticancer human tumor 958667-338-R-J2-PDC patient-derived colon adenocarcinoma cell line growth inhibition [PI3K]
Conditions: spheroids with HUVEC and MSC; for IC50: curve of first compound; for viability, T/C: stronger effect = lower value; active = viability on the fitted dose curve at most 10% of control; inactive = the rest
Method in brief: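 High-throughput combination screen: PI3K inhibitors crossed with targeted small molecules on complex spheroids of tumor cells, HUVEC and MSCs at 37 degrees C, 5% CO2. Top concentration was at or near clinical Cmax (otherwise 10 microM), with half-log decrements.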

[1] = second compound 0.0316 µM, first compound 0.0316 µM
[2] = second compound 0.0316 µM, first compound 0.1 µM
[3] = second compound 0.0316 µM, first compound 0.316 µM
[4] = second compound 0.0316 µM, first compound 1 µM
[5] = second compound 0.1 µM, first compound 0.0316 µM
[6] = second compound 0.1 µM, first compound 0.1 µM
[7] = second compound 0.1 µM, first compound 0.316 µM
[8] = second compound 0.1 µM, first compound 1 µM
[9] = second compound 0.316 µM, first compound 0.0316 µM
[10] = second compound 0.316 µM, first compound 0.1 µM
[11] = second compound 0.316 µM, first compound 0.316 µM
[12] = second compound 0.316 µM, first compound 1 µM
[13] = second compound 1 µM, first compound 0.0316 µM
[14] = second compound 1 µM, first compound 0.1 µM
[15] = second compound 1 µM, first compound 0.316 µM
[16] = second compound 1 µM, first compound 1 µM
[17] = second compound 3.16 µM, first compound 0.0316 µM
[18] = second compound 3.16 µM, first compound 0.1 µM
[19] = second compound 3.16 µM, first compound 0.316 µM
[20] = second compound 3.16 µM, first compound 1 µM
[21] = second compound 10 µM, first compound 0.0316 µM
[22] = second compound 10 µM, first compound 0.1 µM
[23] = second compound 10 µM, first compound 0.316 µM
[24] = second compound 10 µM, first compound 1 µM
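Also: spheroids exposed to compounds for seven days before readout.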

CC(C)NCC(C(=O)N1CCN(c2ncnc3c2C(C)CC3O)CC1)c1ccc(Cl)cc1 (centres undefined) + Cc1nc(NC(=O)N2CCCC2C(N)=O)sc1-c1ccnc(C(C)(C)C(F)(F)F)c1
inactive: viability, T/C [1] 108% | viability, T/C [2] 99.3% | viability, T/C [3] 96.3% | viability, T/C [4] 104% | viability, T/C (second compound 0.0316 µM, first compound 3.16 µM) 91.8% | viability, T/C (second compound 0.0316 µM, first compound 10 µM) 64.6% | viability, T/C [5] 99.4% | viability, T/C [6] 110% | viability, T/C [7] 95.6% | viability, T/C [8] 102% | viability, T/C (second compound 0.1 µM, first compound 3.16 µM) 102% | viability, T/C (second compound 0.1 µM, first compound 10 µM) 60.7% | viability, T/C [9] 90.7% | viability, T/C [10] 103% | viability, T/C [11] 104% | viability, T/C [12] 85.2% | viability, T/C (second compound 0.316 µM, first compound 3.16 µM) 86.9% | viability, T/C (second compound 0.316 µM, first compound 10 µM) 62.1% | viability, T/C [13] 107% | viability, T/C [14] 74.2% | viability, T/C [15] 87.4% | viability, T/C [16] 75.5% | viability, T/C (second compound 1 µM, first compound 3.16 µM) 89.9% | viability, T/C (second compound 1 µM, first compound 10 µM) 73.5% | viability, T/C [17] 74.7% | viability, T/C [18] 68.3% | viability, T/C [19] 71.8% | viability, T/C [20] 76.7% | viability, T/C (second compound 3.16 µM, first compound 3.16 µM) 68.5% | viability, T/C (second compound 3.16 µM, first compound 10 µM) 45.9% | viability, T/C [21] 57.8% | viability, T/C [22] 66.5% | viability, T/C [23] 57.2% | viability, T/C [24] 62.5% | viability, T/C (second compound 10 µM, first compound 3.16 µM) 46.2% | viability, T/C (second compound 10 µM, first compound 10 µM) 35.9%
2360 nM: IC50 (second compound 10 µM)
> 10000 nM: IC50 (second compound 0.0316 µM) | IC50 (second compound 0.1 µM) | IC50 (second compound 0.316 µM) | IC50 (second compound 1 µM)
8170 nM: IC50 (second compound 3.16 µM)

CCN1CCN(Cc2ccc(Nc3ncc(F)c(-c4cc(F)c5nc(C)n(C(C)C)c5c4)n3)nc2)CC1 + Cc1nc(NC(=O)N2CCCC2C(N)=O)sc1-c1ccnc(C(C)(C)C(F)(F)F)c1
684 nM: IC50 (second compound 1 µM)
29.4 nM: IC50 (second compound 3.16 µM)
inactive: viability, T/C (second compound 0.0316 µM, first compound 0.00316 µM) 96.6% | viability, T/C (second compound 0.0316 µM, first compound 0.01 µM) 108% | viability, T/C [1] 93.5% | viability, T/C [2] 81.5% | viability, T/C [3] 64.7% | viability, T/C [4] 73.9% | viability, T/C (second compound 0.1 µM, first compound 0.00316 µM) 97.6% | viability, T/C (second compound 0.1 µM, first compound 0.01 µM) 112% | viability, T/C [5] 85% | viability, T/C [6] 77.1% | viability, T/C [7] 86.1% | viability, T/C [8] 70.4% | viability, T/C (second compound 0.316 µM, first compound 0.00316 µM) 85.5% | viability, T/C (second compound 0.316 µM, first compound 0.01 µM) 86% | viability, T/C [9] 79.7% | viability, T/C [10] 84.6% | viability, T/C [11] 68% | viability, T/C [12] 61.8% | viability, T/C (second compound 1 µM, first compound 0.00316 µM) 94.5% | viability, T/C (second compound 1 µM, first compound 0.01 µM) 67.4% | viability, T/C [13] 72.8% | viability, T/C [14] 59.7% | viability, T/C [15] 57.4% | viability, T/C [16] 45.5% | viability, T/C (second compound 3.16 µM, first compound 0.00316 µM) 66.4% | viability, T/C (second compound 3.16 µM, first compound 0.01 µM) 86.1% | viability, T/C [17] 48.1% | viability, T/C [18] 47.1% | viability, T/C [19] 47.9% | viability, T/C [20] 35.8% | viability, T/C (second compound 10 µM, first compound 0.00316 µM) 54.2% | viability, T/C (second compound 10 µM, first compound 0.01 µM) 60.8% | viability, T/C [21] 44.7% | viability, T/C [22] 46.5% | viability, T/C [23] 36.5% | viability, T/C [24] 31.3%
> 1000 nM: IC50 (second compound 0.0316 µM) | IC50 (second compound 0.1 µM) | IC50 (second compound 0.316 µM)
30.5 nM: IC50 (second compound 10 µM)
